Source: ChEMBL document CHEMBL1153593, “Recent developments in the design and synthesis of hybrid molecules based on aminoquinoline ring and their antiplasmodial evaluation” (Eur J Med Chem, 2009)
pEC50, pIC50: −log10 of the molar value. Values after ≈ are worked out from the molar mass of the structure shown.

Experiments:
[1] = test system: Plasmodium falciparum; assay: Antimalarial activity against chloroquine-resistant Plasmodium falciparum FcB1; format: functional, organism-based
[2] = test system: Plasmodium falciparum; assay: Antimalarial activity against chloroquine-resistant Plasmodium falciparum K1; format: functional, organism-based
[3] = test system: Plasmodium falciparum; assay: Antimalarial activity against Plasmodium falciparum THAI; format: functional, organism-based
[4] = test system: Plasmodium falciparum; assay: Antimalarial activity against chloroquine-resistant Plasmodium falciparum TM91C235; format: functional, organism-based
[5] = test system: Plasmodium falciparum; assay: Antimalarial activity against chloroquine-sensitive Plasmodium falciparum D6; format: functional, organism-based
[6] = test system: Plasmodium falciparum; assay: Antimalarial activity against chloroquine-resistant Plasmodium falciparum Dd2; format: functional, organism-based
[7] = test system: Plasmodium falciparum; assay: Antimalarial activity against chloroquine-resistant Plasmodium falciparum W2; format: functional, organism-based
[8] = test system: Plasmodium falciparum; assay: Antimalarial activity against Plasmodium falciparum 3D7; format: functional, organism-based
[9] = test system: Plasmodium falciparum; assay: Antimalarial activity against Plasmodium falciparum FcB1R; conditions: read-out: ED50 (the source's name)
[10] = test system: Plasmodium falciparum; assay: Antimalarial activity as relative mean survival time against Plasmodium falciparum at 40 mg/kg for 4 days; format: functional; conditions: 96 h
[11] = Cytotoxicity against human MRC5 cells; format: cell-based; conditions: read-out: CD50 (the source's name)
[12] = test system: Plasmodium falciparum; assay: Antimalarial activity against Plasmodium falciparum FcB1/Columbia erythrocytes […]; format: functional, organism-based
[13] = Selectivity index, ratio of CD50 for human MRC5 cells to IC50 for Plasmodium falciparum FcB1/Columbia erythrocytes; format: functional
[14] = test system: Plasmodium yoelii; assay: Antimalarial activity as mean survival time against Plasmodium yoelii N67 infected Swiss mice (Mus musculus); format: functional, N-67
[15] = species: Homo sapiens; assay: (§1) Terminal half life in human; format: ADME, organism-based; conditions: in vivo
[16] = test system: Plasmodium falciparum; assay: Antimalarial activity against Plasmodium falciparum NF54; conditions: NF-54
[17] = test system: Plasmodium yoelii; assay: Antimalarial activity as reduced parasitaemia at day 4 against Plasmodium yoelii N67 infected Swiss mice (Mus musculus) compared to chloroquine; format: functional, N-67; set-up: scale not given: the % may be the effect or the level left
[18] = test system: Plasmodium falciparum; assay: microbe, parasite or virus in culture; conditions: D10
[19] = biological target: Plasmepsin II (Plasmodium falciparum, UniProt P46925); assay: Inhibition of Plasmodium falciparum plasmepsin-2
Sequence of Plasmepsin II (P46925 whole entry): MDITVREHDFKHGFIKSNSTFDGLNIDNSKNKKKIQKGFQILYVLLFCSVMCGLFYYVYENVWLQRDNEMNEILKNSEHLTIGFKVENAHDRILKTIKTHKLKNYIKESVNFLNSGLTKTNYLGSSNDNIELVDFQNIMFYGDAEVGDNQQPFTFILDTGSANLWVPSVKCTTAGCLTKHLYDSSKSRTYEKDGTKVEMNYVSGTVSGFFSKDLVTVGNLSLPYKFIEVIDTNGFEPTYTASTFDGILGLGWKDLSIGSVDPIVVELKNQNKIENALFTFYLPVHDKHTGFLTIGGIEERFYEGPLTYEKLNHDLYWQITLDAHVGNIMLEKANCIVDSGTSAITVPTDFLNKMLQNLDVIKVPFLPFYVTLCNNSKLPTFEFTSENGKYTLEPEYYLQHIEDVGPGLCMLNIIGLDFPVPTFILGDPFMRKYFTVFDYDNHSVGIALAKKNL

[20] = test system: Plasmodium falciparum; assay: Antimalarial activity against chloroquine-sensitive Plasmodium falciparum D10 at 9 uM; format: functional
[21] = test system: Plasmodium falciparum; assay: Antimalarial activity against chloroquine-resistant Plasmodium falciparum W2 at 9 uM; format: functional
[22] = as §1; format: ADME, organism-based; conditions: in vivo, read-out: beta t1/2 (converted)
[23] = test system: Plasmodium berghei; assay: Gametocytocidal activity as oocysts per mosquito against Plasmodium berghei; format: functional
[24] = test system: Plasmodium berghei; assay: Gametocytocidal activity as infected mosquitoes against Plasmodium berghei at 10 uM/kg; format: functional

## O=C(CN1CCCCC1)Nc1cc(CN2CCCCC2)cc(Nc2ccnc3ccc(Cl)cc23)c1
[1]
  pIC50: 8.00
[2]
  pIC50: 8.09
[3]
  pIC50: 8.17

## CC(C)(C)NCc1c(Nc2ccnc3ccc(Cl)cc23)cc(O)cc1-c1ccc(Cl)cc1
[4]
  IC50: 0.3 ng/mL (≈ 0.643 nM)
[5]
  IC50: 0.3 ng/mL (≈ 0.643 nM)

## CCCCN(CCCNc1ccnc2cc(Cl)ccc12)Cc1ccsc1
[6]
  pIC50: 7.35
[7]
  pIC50: 7.30
[8]
  pIC50: 7.30

## O=C(CN1CCCCC1)Nc1cc(COC(=O)CCCCCC2=CC(=O)c3ccccc3C2=O)cc(Nc2ccnc3ccc(Cl)cc23)c1
[9]
  pEC50: 7.64
[10]
  survival at 40 mg/kg: 178%

## CCCCCCCNCCCN1CCN(CCCNc2ccnc3cc(Cl)ccc23)CC1
[11]
  CC50: < 3100 nM
[12]
  pIC50: 8.02
[13]
  Selectivity Index: <326

## O=C(CN1CCCCC1)Nc1cc(CN2CCOCC2)cc(Nc2ccnc3ccc(Cl)cc23)c1
[1]
  pIC50: 8.02
[2]
  pIC50: 7.91
[3]
  pIC50: 7.89

## CCCCN(CCCNc1ccnc2cc(Cl)ccc12)Cc1ccoc1
[6]
  pIC50: 7.35
[7]
  pIC50: 7.15
[8]
  pIC50: 7.30

## CCCCN(CCCNc1ccnc2cc(Cl)ccc12)Cc1cc(Br)ccc1O
[6]
  pIC50: 7.35
[7]
  pIC50: 7.35
[8]
  pIC50: 7.35

## CCN(CC)CCCC(C)Nc1ccnc2cc(Cl)ccc12 (stereo unspecified) [CHLOROQUINE]
[14]
  Survival: 20 days
[15]
  beta t1/2: 1 months
[16]
  pIC50: 6.97
  MIC: 0.39 µM (≈ 0.125 µg/mL)
[17]
  Activity: 99.9%

## O=C(CN1CCCCC1)Nc1cc(CN2CCN(c3ccccc3)CC2)cc(Nc2ccnc3ccc(Cl)cc23)c1
[1]
  pIC50: 8.26

## COc1ccc(CNCc2cc(NC(=O)CN3CCCCC3)cc(Nc3ccnc4ccc(Cl)cc34)c2)cc1
[1]
  pIC50: 8.36

## CCCCNC(=O)C[C@H](O)[C@H](CC(C)C)NC(=O)[C@@H](NC(=O)Cc1ccc(CC(=O)N[C@H](C(=O)N[C@H](CCCCN)C(=O)NCCCC(C)Nc2cc(OC)cc3cccnc23)C(C)C)cc1)[C@H](C)CC (stereo partly specified)
[18]
  pIC50: 5.26
[7]
  pIC50: 5.38
[19]
  pIC50: 3.87

## CCCCNC(=O)C[C@H](O)[C@H](CC(C)C)NC(=O)[C@@H](NC(=O)CCC(=O)N[C@H](C(=O)N[C@H](CCCCN)C(=O)NCCCC(C)Nc1cc(OC)cc2cccnc12)C(C)C)[C@H](C)CC (stereo partly specified)
[19]
  pIC50: 3.40
[20]
  Activity: 20%
[21]
  Activity: 40%

## COc1cc(NC(C)CCCN)c2ncccc2c1 (stereo unspecified) [PRIMAQUINE]
[22]
  half-life: 14 days
[23]
  Activity: 2.6
[24]
  Activity: 28%

## Clc1ccc2c(NCCCN(CCc3ccccc3)Cc3ncc[nH]3)ccnc2c1
[6]
  pIC50: 6.82
[7]
  pIC50: 6.89
[8]
  pIC50: 7.30
